Results taken from US7109193B2, “Tricyclic diazepines tocolytic oxytocin receptor antagonists” (Wyeth, priority 2001, dated 2006).

Target: T1, human oxytocin receptor (Homo sapiens, UniProt P30559)
T1 construct: host or cells: CHO cells (pcDNA3.1 vector)
T1 sequence (P30559 1-389): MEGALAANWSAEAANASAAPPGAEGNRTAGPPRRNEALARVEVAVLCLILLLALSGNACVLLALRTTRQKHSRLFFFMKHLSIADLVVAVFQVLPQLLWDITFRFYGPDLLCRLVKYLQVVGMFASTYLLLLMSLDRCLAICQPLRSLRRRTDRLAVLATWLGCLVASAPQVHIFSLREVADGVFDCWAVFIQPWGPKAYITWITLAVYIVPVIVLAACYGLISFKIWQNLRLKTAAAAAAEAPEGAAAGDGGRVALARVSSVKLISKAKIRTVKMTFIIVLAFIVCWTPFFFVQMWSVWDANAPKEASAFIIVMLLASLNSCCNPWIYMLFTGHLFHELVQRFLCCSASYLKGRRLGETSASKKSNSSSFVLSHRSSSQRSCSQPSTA
Assay: Oxytocin binding in Chinese Hamster Ovary cell membranes expressing human oxytocin receptors
Details: 100 nM, CHO cell membranes, [3H]oxytocin, values without parentheses; for inhibition at 0.1 µM: read-out: OT % inhibition @ 100% nM
Description: Oxytocin Binding in Chinese Hamster Ovary Cell Membranes Expressing Human Oxytocin Receptors
The trypsin is removed by aspiration and the cells dislodged by tapping. Cell Culture medium (e.g. 30 mL for 1:30 split) is immediately added and mixed well to inactivate trypsin. 1 mL of detached cells is added to new culture flasks containing fresh Cell Culture medium (e.g. into 25 mL per T-150 flask), and mixed gently. The cells are incubated at 37° C. in 5% CO2. The medium is changed at 3 to 4 days interval (or as appropriate). […] All steps are done under sterile conditions. B. Membrane Preparation: The cells are washed twice gently with Hank's Balanced Salt solution (e.g., use 10 mL per T-150 flask). […] The contents are transferred to centrifuge tubes (50 mL size) kept in ice bath. All subsequent steps are done at 4° C. The tubes are centrifuged at 300×g for 15 min (1380 rpm on SORVAL, Model RT6000D, using rotor for 50 mL tubes). The supernatant is discarded and the cells suspended in homogenizing buffer (10 mM Tris-HCl containing 0.25 M sucrose and 1 mM EDTA, pH 7.4) ensuring that the volume of the buffer is about ten times the volume of the cell pellet. The cells are pooled into a centrifuge tube (50 mL) and homogenized with a Polytron at setting 6 for 10 sec. The homogenate is transferred into a Potter-Elvjehm homogenizer and homogenized with 3 strokes. The homogenate is centrifuged at 1500×g for 10 min at 4° C. (3100 rpm using SORVAL, model RT6000D, using rotor for 50 mL tubes). The pellet is discarded. The supernatant is centrifuged at 100,000×g for 60 min. at 4° C. (Beckman L8-80M ultracentrifuge; spin at 37,500 rpm with rotor type 70 Ti for 50 mL tubes; 38,000 rpm with type 80Ti for 15 mL tubes; or 35,800 rpm with rotor type 45Ti). The supernantant is discarded and the pellet suspended in 3 to 4 mL of Tris buffer (50 mM TRIS-HCl, pH 7.4). The protein content is estimated by the Bradford or Lowry method. The volume of the membrane suspension is adjusted with the membrane buffer (50 mM Tris-HCl containing 0.1% BSA and 0.1 mM PMSF) to give 3.0 mg/mL (or as appropriate) of protein. The membranes are aliquoted and stored at −70° C. C. Radioligand Binding Assay: In wells of a 96-well format microtiter plate, is added 90, 110 or 130 μL (to make up a final volume of 200 μL) of assay buffer containing 50 mM of Tris-HCl (pH 7.4), […], 1 mg % aprotinin, 1 mg % leupeptin, 2 mg % 1,10-phenanthroline, 10 mg % trypsin inhibitor, and 0.1 mM PMSF. The inhibitors are added on the day of the experiment. The components are mixed at room temperature, and then kept in ice bath following adjustment of the pH to 7.4. […] For oxytocin and other peptide ligands, 20 μL of 50% DMSO is added and the assay buffer volume is adjusted accordingly. To each well is added 50 μL of frozen membrane suspension thawed immediately prior to use and diluted in assay buffer to the required concentration (equivalent to 25 to 50 μg of protein/well as needed). 20 μL of 8 nM [^3H]oxytocin in the assay buffer, prepared just before use is added and incubated at room temperature for 60 min. shaking the plate on a mechanical shaker for the first 15 min. The incubation is stopped by rapid filtration of the plate contents followed by washing with ice-cold buffer (50 mM Tris-HCl, pH 7.4) using a cell harvester (Tomtek and Printed filtermat-B filter paper). The filter paper is thoroughly dried (7–12 min. in a microwave oven) and impregnated with MeltiLex B/H melt-on scintillation wax sheets and the radioactivity counted in a betaplate scintillation counter.
Binding data is either reported as percent inhibition at a certain concentration or if an IC50 was calculated, as a nanomolar concentration.

Molecule | inhibition at 0.1 µM [%] | OT % inhibition @ 100% nM [%]
COc1cccc(-c2ccc(C(=O)N3Cc4ccc(C(=O)N5CCC(N6CCCC6)CC5)n4Cc4ccccc43)cc2C)c1 [Example 139, {10-[(3′-Methoxy-2-methyl[1,1′-biphenyl]-4-yl)carbonyl]-10,11-dihydro-5H-pyrrolo[2,1-c][1,4]benzodiazepin-3-yl}[4-(1-pyrrolidinyl)-1-piperidinyl]methanone] | 76 | 
Cc1cccc(N2CCN(C(=O)c3ccc4n3Cc3ccccc3N(C(=O)c3ccc(-c5ccccc5C(F)(F)F)c(C)c3)C4)CC2C)c1 (stereo not drawn) [Example 5, [3-Methyl-4-(3-methyl-phenyl)-piperazin-1-yl]-[10-(2-methyl-2′-trifluoromethyl-[1,1′-biphenyl]-4-yl)carbonyl]-10,11-dihydro-5H-pyrrolo[2,1-c][1,4]benzodiazepin-3-yl-methanone] |  | 24
Cc1ccccc1-c1ccc(C(=O)N2Cc3ccc(C(=O)NCCN4CCCCC4)n3Cc3ccccc32)cc1C [Example 150, 10-[(2,2′-Dimethyl[1,1′-biphenyl]-4-yl)carbonyl]-N-[2-(1-piperidinyl)ethyl]-10,11-dihydro-5H-pyrrolo[2,1-c][1,4]benzodiazepine-3-carboxamide] | 75 | 
COc1cccc(-c2cc(OC)c(C(=O)N3Cc4ccc(C(=O)N5CCC(N6CCCC6)CC5)n4Cc4ccccc43)cc2Cl)c1 [Example 143, {10-[(6-Chloro-3,3′-dimethoxy[1,1′-biphenyl]-4-yl)carbonyl]-10,11-dihydro-5H-pyrrolo[2,1-c][1,4]benzodiazepin-3-yl}[4-(1-pyrrolidinyl)-1-piperidinyl]methanone] | 69 | 
COc1cc(C(=O)N2Cc3ccc(C(=O)N4CCC(N5CCCCC5)CC4)n3Cc3ccccc32)ccc1-c1ccccc1C [Example 116, {10-[(2-Methoxy-2′-methyl[1,1′-biphenyl]-4-yl)carbonyl]-10,11-dihydro-5H-pyrrolo[2,1-c][1,4]benzodiazepin-3-yl}[4-(1-piperidinyl)-1-piperidinyl]methanone] | 84 | 
COc1cc(-c2ccccc2C)c(Cl)cc1C(=O)N1Cc2ccc(C(=O)N3CCC[C@H]3CN3CCCC3)n2Cc2ccccc21 [Example 267, {10-[(6-Chloro-3-methoxy-2′-methyl[1,1′-biphenyl]-4-yl)carbonyl]-10,11-dihydro-5H-pyrrolo[2,1-c][1,4]benzodiazepin-3-yl}[(2S)-2-(1-pyrrolidinylmethyl)pyrrolidinyl]methanone] |  | 93
Cc1ccccc1-c1ccc(C(=O)N2Cc3ccc(C(=O)N4CC[C@@H](N(C)C)C4)n3Cc3ccccc32)cc1 [Example 280, [(3R)-3-(Dimethylamino)pyrrolidinyl]{10-[(2′-methyl[1,1′-biphenyl]-4-yl)carbonyl]-10,11-dihydro-5H-pyrrolo[2,1-c][1,4]benzodiazepin-3-yl}methanone] |  | 95
Cc1ccccc1-c1ccc(C(=O)N2Cc3ccc(C(=O)N4CC[C@@H](N(C)C)C4)n3Cc3ccccc32)cc1C [Example 274, [(3R)-3-(Dimethylamino)pyrrolidinyl]{10-[(2,2′-dimethyl[1,1′-biphenyl]-4-yl)carbonyl]-10,11-dihydro-5H-pyrrolo[2,1-c][1,4]benzodiazepin-3-yl}methanone] |  | 103
COc1ccccc1-c1ccc(C(=O)N2Cc3ccc(C(=O)N4CC[C@@H](N(C)C)C4)n3Cc3ccccc32)cc1OC [Example 282, {10-[(2,2′-Dimethoxy[1,1′-biphenyl]-4-yl)carbonyl]-10,11-dihydro-5H-pyrrolo[2,1-c][1,4]benzodiazepin-3-yl][(3R)-3-(dimethylamino)pyrrolidinyl]methanone] |  | 84
COc1cccc(-c2ccc(C(=O)N3Cc4ccc(C(=O)NCCN5CCCCC5)n4Cc4ccccc43)cc2C)c1 [Example 151, 10-[(3′-Methoxy-2-methyl[1,1′-biphenyl]-4-yl)carbonyl]-N-[2-(1-piperidinyl)ethyl]-10,11-dihydro-5H-pyrrolo[2,1-c][1,4]benzodiazepine-3-carboxamide] | 47 | 
COc1cc(C(=O)N2Cc3ccc(C(=O)N4CCC[C@H]4CN4CCCC4)n3Cc3ccccc32)ccc1-c1cccc2ccccc12 [Example 262, {10-[3-Methoxy-4-(1-naphthyl)benzoyl]-10,11-dihydro-5H-pyrrolo[2,1-c][1,4]benzodiazepin-3-yl}[(2S)-2-(1-pyrrolidinylmethyl)pyrrolidinyl]methanone] |  | 76
O=C(c1ccc2n1Cc1ccccc1N(C(=O)c1ccc(-c3cccc4ccccc34)cc1Cl)C2)N1CCC(N2CCCCC2)CC1 [Example 121] |  | 0
COc1cc(C(=O)N2Cc3ccc(C(=O)N4CCC[C@H]4CN4CCCC4)n3Cc3ccccc32)ccc1-c1ccccc1Cl [Example 33, {[10-(2-Methoxy)-2′-chloro-[1,1′-biphenyl]-4-yl]carbonyl}-[(2S)-[(2-pyrrolidin-1-yl)methyl]pyrrolidin-1-yl]-10,11-dihydro-5H-pyrrolo[2,1-c][1,4]benzodiazepin-3-yl-methanone] |  | 101
COc1ccccc1-c1ccc(C(=O)N2Cc3ccc(C(=O)N(C)CCCN(C)C)n3Cc3ccccc32)cc1OC [Example 107, 10-[(2,2′-Dimethoxy[1,1′-biphenyl]-4-yl)carbonyl]-N-[3-(dimethylamino)propyl]-N-methyl-10,11-dihydro-5H-pyrrolo[2,1-c][1,4]benzodiazepine-3-carboxamide] | 87 | 
COc1cc(C(=O)N2Cc3ccc(C(=O)N4CCC[C@H]4CN4CCCC4)n3Cc3ccccc32)ccc1-n1c(C)ccc1C [Example 321, {10-[4-(2,5-Dimethyl-1H-pyrrol-1-yl)-3-methoxybenzoyl]-10,11-dihydro-5H-pyrrolo[2,1-c][1,4]benzodiazepin-3-yl}[(2S)-2-(1-pyrrolidinylmethyl)pyrrolidinyl]methanone] |  | 62
{10-[(2,2′-Dimethoxy[1,1′-biphenyl]-4-yl)carbonyl]-10,11-dihydro-5H-pyrrolo[2,1-c][1,4]benzodiazepin-3-yl}(4-isopropyl-1-piperazinyl)methanone [Example 244] |  | 68
Cc1ccccc1-c1ccc(C(=O)N2Cc3ccc(C(=O)N4CCC(N5CCCC5)CC4)n3Cc3ccccc32)cc1 [Example 141, {10-[(2′-Methyl[1,1′-biphenyl]-4-yl)carbonyl]-10,11-dihydro-5H-pyrrolo[2,1-c][1,4]benzodiazepin-3-yl}[4-(1-pyrrolidinyl)-1-piperidinyl]methanone] | -6 | 
COc1cc(C(=O)N2Cc3ccc(C(=O)NCCN4CCCCC4)n3Cc3ccccc32)ccc1-c1ccccc1C [Example 154, 10-[(2-Methoxy-2′-methyl[1,1′-biphenyl]4-yl)carbonyl]-N-[2-(1-piperidinyl)ethyl]-10,11-dihydro-5H-pyrrolo[2,1-c][1,4]benzodiazepine-3-carboxamide] | 54 | 
